US20130197073A1, “HYPOCHOLESTEROLEMIC, ANTI-INFLAMMATORY AND ANTIEPILEPTIC NEUROPROTECTIVE COMPOUND” (NEURON BIOPHARMA, S.A., priority 2010, published 2013)

Key:
[1] = system: human neuroblastoma SK-N-MC cells; test: Inhibition of DNA fragmentation (sub-G1, flow cytometry) in camptothecin cell model of apoptosis; type: cell-based; conditions: pretreatment 24 hours at 10 μM; 50 μM CPT 6 hours
Method: The assay was performed on human neuroblastoma SK-N-MC cells in culture, maintained as described in section 2.1.
The inhibition caused by compound NST0060 with respect to apoptosis caused by treatment with camptothecin (CPT), which inhibits the topoisomerase I enzyme, prevents DNA duplication and triggers apoptotic cell death. These cells, not exceeding 15 passages, were seeded on 6-well plates treated for adherent cells with a cell concentration of 7×10^5 cells/well; 2 wells of the plate were seeded for each assay condition.
After 24 hours of cell incubation (at 37° C. and 5% CO2), cell pretreatment was performed with 10 and 40 μM of NST0060 for 24 hours; they were subsequently treated with 50 μM CPT for 6 hours. Furthermore, Z-VAD-fmk at 50 μM was used as positive control for inhibition.
After treatment, the cells were collected along with their culture medium and centrifuged at 300×g for 5 minutes. The medium was removed, a washing was performed with PBS and the cells were fixed for 2 minutes with 500 μl of 70% ethanol at −20° C. […] After this time they were analyzed by flow cytometry, comparing the fluorescence of propidium iodide with respect to the amount of DNA. The percentage of apoptosis was measured on the sub-G1 region of each of the conditions.

[2] = system: promoter of a gene that could be modulated by oxidative stress bound to the firefly luciferase reporter gene; test: Oxidative stress of the brain induced by kainate in luciferase reporter mice, in vivo bioluminescence; conditions: 50 mg/kg i.p. at 24 and 0.5 hours before KA 25 mg/kg and daily; 1 to 4 dpi
Method: All the animals included during the experimental process were 12-week old males from the FVB/N strain who were carriers of a gene construct with the promoter of a gene that could be modulated by oxidative stress bound to the firefly luciferase reporter gene. The experiments were carried out strictly complying with the standard entitled Guidance on the Operation of Animals (Scientific Procedures, Act. 1986). The animals were subjected to their respective quarantine period and were treated with maximum precaution to minimize possible contaminations during inoculations and handling.
The animals were intraperitoneally inoculated with 25 mg/kg of kainate (KA) dissolved in PBS. Seven mice were pretreated at 24 and 0.5 hours before inoculation with KA and subsequently on a daily basis up to 7 days post-inoculation by means of intraperitoneal injection with 0.25% methyl cellulose in PBS as a vehicle (vehicle+KA administration regimen), and another 7 mice were pretreated at 24 and 0.5 hours before inoculation with KA and subsequently on a daily basis up to 7 days post-inoculation by means of intraperitoneal injection with compound NST0060 at a dose of 50 mg/kg (NST0060+KA administration regimen). […] Oxidative stress in the brain was monitored by means of the in vivo bioluminescence technique with the IVIS Lumina system (Caliper LS). […]

[3] = system: zebrafish (Danio rerio, AB strain) embryos; test: Zebrafish embryo acute toxicity, percentage of healthy larvae; conditions: mean±SD
[4] = biological target: T1, 3-hydroxy-3-methylglutaryl coenzyme A reductase (HMGR) (Homo sapiens, UniProt P04035); test: Inhibition of HMGR enzyme activity in vitro, NADPH absorbance at 340 nm; type: biochemical; conditions: active forms (activated with 0.1 N NaOH); five independent assays in duplicate
T1 sequence (P04035 340-888 limits assumed): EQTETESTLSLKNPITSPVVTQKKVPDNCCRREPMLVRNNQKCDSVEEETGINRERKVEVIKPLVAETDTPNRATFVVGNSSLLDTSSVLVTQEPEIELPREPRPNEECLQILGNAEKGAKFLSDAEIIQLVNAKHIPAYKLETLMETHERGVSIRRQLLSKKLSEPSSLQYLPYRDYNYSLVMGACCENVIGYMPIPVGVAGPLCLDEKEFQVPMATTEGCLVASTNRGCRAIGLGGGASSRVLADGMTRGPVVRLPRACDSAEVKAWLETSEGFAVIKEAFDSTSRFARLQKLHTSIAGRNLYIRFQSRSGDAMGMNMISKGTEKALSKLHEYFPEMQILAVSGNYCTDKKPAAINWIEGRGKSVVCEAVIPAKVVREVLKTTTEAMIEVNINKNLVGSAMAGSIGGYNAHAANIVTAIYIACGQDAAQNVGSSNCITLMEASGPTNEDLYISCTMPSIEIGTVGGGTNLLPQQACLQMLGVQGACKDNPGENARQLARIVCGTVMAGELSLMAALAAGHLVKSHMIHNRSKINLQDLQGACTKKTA
Method: The assay was carried out in a 96-well plate, with a total reaction volume of 200 μl.

[5] = PAMPA, 18 h, 100 μM, pH 7.4
Description: To that end, the BBB was mimicked in an in vitro system that allowed evaluating the compound without using cells, and where the so-called PAMPA (Parallel Artificial Membrane Permeation Assay) was used, using a sandwich system considering the crossing of compounds by means of passive diffusion.
A mixture of marketed lipids derived from pig brain with a phospholipid composition very similar to that which forms the barrier and known as PBL (Porcine Polar Brain Lipid) was used to mimic the blood-brain barrier. This compound was stored at −20° C. dissolved in dodecane at 100 μg/ml in glass vials.
To that end, a 1/100 dilution of the compounds was performed, being the DMSO content in all cases 1%.
Five microliters of PBL at 20 μg/ml prepared from the frozen stock at 100 μg/mL were added in a 96-well filter plate, with a PVDF membrane and a pore size of 45 μm (MAIPN4550, Millipore). After 2 minutes, 300 μl of the phosphate buffer used to dilute the compounds were added. […] After that time, 100 μl from the wells of the donor plates and acceptor plates were transferred to a special 96-well plate for UV reading. […] The percentage of barrier crossing as well as the effective permeability (Pe) were calculated from the spectrophotometric data. […]
[Drug]acceptor=Absorbance of the acceptor well
[Drug]equilibrium=Absorbance of the mean of the basal wells/2 […]

CCCC(CCC)C(=O)O[C@H]1C[C@@H](C)C=C2C=C[C@H](C)[C@H](CC[C@@H]3C[C@@H](O)CC(=O)O3)[C@H]21 [NST0060, 2-propylpentanoic acid (1S,3R,7S,8S,8aR)-1,2,3,7,8,8a-hexahydro-3,7-dimethyl-8-[2-[(2R,4R)-tetrahydro-4-hydroxy-6-oxo-2H-pyran-2-yl]ethyl]-1-naphthalenyl ester]
maximum protection against apoptosis (DNA fragmentation) caused by CPT [1]: 41% | expression of gene associated with oxidative stress in the brain (photon emission) [2]: did not show a significant increase in the expression of this gene associated with oxidative stress | percentage of healthy larvae ([3]; dose of 1 mg/Kg): 100±0.0% | percentage of healthy larvae ([3]; dose of 3 mg/Kg): 86.7±6.2% | IC50 [4]: 0.126 ± 0.0346 µM | % BBB crossing [5]: 29.8 ± 2.4%
